Measurements as given in patent US9464053B2, “Compositions for reducing Aβ 42 production and their use in treating alzheimer's disease (AD)” (KAREUS THERAPEUTICS SA, priority 2010, dated 2016).
Where a name gives a salt, the structure may show the parent alone. Read-outs that look alike come from different tables or passages of the source. Marks after values point to notes of the source that are not given here.

Columns and labels:
Aβ42 secretion = experiment: Reduction of Aβ42 production in human neuronal SH-SY5Y cells (sandwich ELISA of cell media); assay type: cell-based; details: read-out: Aβ42 IC50
Protocol: We used the human Neuroblastoma SH-SY5Y cells for drug testing as a model for Aβ42 production. […] Cell toxicity was monitored using the MTT assay and all data reported are corrected for any cell loss.
The capture antibody, detection antibody and secondary antibody as well as standard purified preparations of Aβ42 were obtained from Sigma-Aldrich. Cells were cultured for 24 h in the presence or absence of compounds and the conditioned medium was subjected to sELISA.
Cells were incubated overnight with increasing concentrations the compounds. The cell media was then harvested and Aβ42 in the media was quantitated using sandwich ELISA.

Aβ-42 levels in brain = experiment: Brain Aβ-42 levels in rat after two weeks oral treatment (ELISA); assay type: in vivo; details: for Percentage change: vs Control; for Aβ-42 levels Mean ± SE: rat brain, soluble fraction
Protocol: Animals are randomized into different treatment groups based on body weight. The test compounds are administered orally for 2 weeks while the control animals are administered the vehicle alone.
At the end of the study, animals are sacrificed 2 hours after the last dose and brain samples are excised and immediately frozen on dry ice. The frozen brains are homogenized in 3 volumes (w/v) of ice-cold 0.2% Diethylamine containing 50 mM NaCl, pH 10, and protease inhibitors, and then centrifuged at 15000 rpm at 4° C. for 30 min using a centrifuge. The resulting supernatant is retained as the soluble fraction and neutralized by addition of 10% 0.5 M Tris-HCl, pH 6.8.
Ar3-42 levels in brain tissue extracts were determined by ELISA. […] 100 μL of this was coated per well in a 96 well immunoplate (NUNC) at 4° C. for 16-18 hours. The plate was washed 3× with 230 μL of wash buffer. The wells were then blocked with 150 μL of blocking buffer for 1 hour. The plate was washed 3× with 230 μL of wash buffer. Samples, standard (2500-1.1 ng/ml) and blank were added to the appropriate wells and incubated with mild shaking for 2 hours. The plate was then washed 3× with 230 μL of wash buffer. […] 100 μL of this was added per well and incubated with mild shaking for 2 hours. The plate was washed 3× with 230 μl of wash buffer. 100 lit of Detection antibody, Anti-rabbit IgG whole molecule HRP conjugate (Sigma A6154 diluted 1:1000 with 1% BSA) added in to the wells and incubated for 2 hours with mild shaking. The plate was washed 3× with 230 μl of wash buffer followed by 100 μL of Strepavidin HRP (1:200 diluted with 1% BSA). The plate was 3× with 230 μL of wash buffer and 100 μL of TMB/H2O2 substrate was added and incubated for 20 minutes. The reaction was topped by adding 50 μL of 2N H2SO4 and the absorbance was measured at 450/570 nm in a microplate reader (BioTek)

Wistar rats = experiment: Morris water maze task, scopolamine memory deficit; assay type: in vivo, rat; details: mean, p.o., scopolamine-treated
Protocol: Male wistar rats are used for this study. The Water maze consists of a 1.8 m diameter; 0.6 m high circular tank filled with water (24±2° C.). A platform 16 cm diameter will be placed 1.0 cm below the water surface in the center of one of the four imaginary quadrants, which remains constant for all the rats. […] Rats were lowered gently, feet first into water. A rat was allowed to swim for 60 s to find the platform. If the platform was found during this time the trial was stopped and rat was allowed to stay on platform for 30 s before being removed from the maze. If the platform was not found during 60 s trial, then the rat was manually placed on the platform facing a visual cue and allowed to stay on platform for 30 s before being removed from the maze. The rats were taken off the platform (ensuring that the rat sees the investigator's hand from the front before removal) and dried with a towel gently. Each rat received 4 trials in a day. The maze has 8 starting points. On the first and third day the animals started from 1st, 3rd, 5th & 7th starting points. On the second and fourth day the animals started from 2nd, 4th, 6th & […] starting points. Retention of the task was assessed on 5th day in which each animal received a single 120 s probe trial during which platform was removed from the pool. Rats were not treated prior to retention trail. Rats were placed under a heating lamp for 5 min before being returned to its home cage. Latency to reach the platform ([…]), swim speed (cm/s) and path length (cm) was measured in acquisition trials. Percentage time spent in target quadrant (quadrant in which platform is placed during acquisition training) and swim speed (cm/s) was calculated in probe trial. The animals were tracked and the data was generated using the Video Mot 2 software. Experimentation was carried out over a period of 10 days i.e. first 6 animals was experimented on first five days and the next 6 animals was experimented on next five days (Pretreatment and testing schedule was initiated accordingly such that all animals receive 9 doses of vehicle or test drug). Data obtained was analyzed by Repeated measures Two way ANOVA followed by Bonferroni post tests by using the Graph pad prism software package.

soluble brain aβ-42 = experiment: Tg2576 transgenic mouse model, soluble brain aβ-42 (ELISA); assay type: in vivo; details: Tg 2576 mice, 4 weeks, 50 mg/kg orally daily
Protocol: (§1) The study used 6-month old Tg (HuApp695.K670-M671L) 2576 transgenic and age-matched C57B16/SJL non-transgenic control mice (Hsiao K, Chapman P, Nilsen S, Eckman C, Harigaya Y, et al. Correlative memory deficits, Abeta elevation, and amyloid plaques in transgenic mice. Science. 1996; 274:99-102). Mice were obtained from Jackson Labs and a colony was established. Tg2576 transgenic mice over-express human APP with the double Swedish mutation. Tg2756 and control mice were treated for a period of 4 weeks with either 1) vehicle alone n=10), 2) compound 9 (50 mg/kg dosed orally; n=10). Soluble brain aβ-42 and aβ-40 were measured using the typical ELISA protocol described before.

soluble brain aβ-40 = experiment: Tg2576 transgenic mouse model, soluble brain aβ-40 (ELISA); assay type: in vivo; details: Tg 2576 mice, 4 weeks, 50 mg/kg orally daily
Protocol: as §1

[1] = SH-SY5Y cells incubated overnight, Aβ42 in media by sandwich ELISA
[2] = Day-1 acquisition trials, 1 mg/kg
[3] = Day-1 acquisition trials, 3 mg/kg
[4] = Day-1 acquisition trials, 10 mg/kg
[5] = Day-2 acquisition trials, 1 mg/kg
[6] = Day-2 acquisition trials, 3 mg/kg
[7] = Day-2 acquisition trials, 10 mg/kg
[8] = Day-3 acquisition trials, 1 mg/kg
[9] = Day-3 acquisition trials, 3 mg/kg
[10] = Day-3 acquisition trials, 10 mg/kg
[11] = Day-4 acquisition trials, 1 mg/kg
[12] = Day-4 acquisition trials, 3 mg/kg
[13] = Day-4 acquisition trials, 10 mg/kg

C=CCc1ccc(OC(=O)C(NC(=O)c2cccnc2)C(C)C)c(OC)c1 (centres unmarked) [Compound 3, 3-methyl-2-[pyridine-3-carbonyl]-amino-butyric acid-4-allyl-2-methoxy phenyl ester]
IC50 (Aβ42 secretion; [1]): > 52.2 µM

C=CCc1ccc(OC(=O)CCCNC(=O)c2cccnc2)c(OC)c1 [Compound 13, 4[(pyridine-3-carbonyl)-amino]-butyric acid-4-allyl-2-methoxy phenyl ester]
IC50 (Aβ42 secretion; [1]): 26.1 µM

C=CCc1ccc(OC(=O)C(CC(C)C)NC(=O)c2cccnc2)c(OC)c1 (centres unmarked) [Compound 15, 4-methyl-2-[pyridine-3-carbonyl]-amino-pentanoic acid-4-allyl-2-methoxy phenyl ester]
IC50 (Aβ42 secretion; [1]): > 52.2 µM

C=CCc1ccc(OC(=O)COC(=O)c2cccnc2)c(OC)c1 (as salt: hydrochloride) [Compound 8, nicotinic acid 4-allyl-2-methoxy-phenoxycarbonylmethyl ester]
melting point: 109.3 to 111.2 °C

C=CCc1ccc(OC(=O)C(CCSC)NC(=O)c2cccnc2)c(OC)c1 (centres unmarked) [Compound 2, 4-methyl-sulfanyl-2-[(pyridine-3carbonyl)-amino] butyric acid-4-allyl-2-methoxy phenyl ester]
IC50 (Aβ42 secretion; [1]): > 52.2 µM

C=CCc1ccc(OC(=O)C(C)NC(=O)c2cccnc2)c(OC)c1 (centres unmarked) [Compound 14, 4-allyl-2-methoxyphenyl 2-(nicotinamido) propanoate]
IC50 (Aβ42 secretion; [1]): 15.4 µM

C=CCc1ccc(OC(=O)C(CCC(=O)O)NC(=O)c2cccnc2)c(OC)c1 (centres unmarked) [Compound 7, 2-[pyridine-3-carbonyl-amino]-pentane dioic acid-1-(4-allyl-2-methoxyphenyl)ester]
IC50 (Aβ42 secretion; [1]): > 52.2 µM

C=CCc1ccc(OC(=O)CNC(=O)c2cccnc2)c(OC)c1 [Compound 11, [(pyridine-3-carbonyl)-amino]-acetic acid 4-allyl-2-methoxy-phenyl ester]
IC50 (Aβ42 secretion; [1]): 15.9 µM

C=CCc1ccc(OC(=O)C(NC(=O)c2cccnc2)C(C)CC)c(OC)c1 (centres unmarked) [Compound 6, 3-methyl-2-[pyridine-3-carbonyl]-amino-pentanoic acid-4-allyl-2-methoxy phenyl ester]
IC50 (Aβ42 secretion; [1]): > 52.2 µM

C=CCc1ccc(OC(=O)C(Cc2ccc(O)cc2)NC(=O)c2cccnc2)c(OC)c1 (centres unmarked) [Compound 5, 3-(4-hydroxyphenyl)2-[(pyridine-3-carbonyl)amino]propionic acid-4-allyl-2-methoxy phenyl ester]
IC50 (Aβ42 secretion; [1]): > 52.2 µM

C=CCc1ccc(OC(=O)C(Cc2c[nH]c3ccccc23)NC(=O)c2cccnc2)c(OC)c1 (centres unmarked) [Compound 4]
IC50 (Aβ42 secretion; [1]): > 52.2 µM

C=CCc1ccc(OC(=O)C2CCCN2C(=O)c2cccnc2)c(OC)c1 (centres unmarked) [Compound 10, 1-(pyridine-3-carbonyl)-pyrrolidine-2-carboxylic acid 4-allyl-2-methoxy-phenyl ester]
IC50 (Aβ42 secretion; [1]): 33.4 µM

C=CCc1ccc(OC(=O)COC(=O)c2cccnc2)c(OC)c1 [Compound 8, nicotinic acid 4-allyl-2-methoxy-phenoxycarbonylmethyl ester]
IC50 (Aβ42 secretion; SH-SY5Y): > 15 µM

CCC(C)(C)C(=O)O[C@H]1C[C@@H](C)C=C2C=C[C@H](C)[C@H](CC[C@@H]3C[C@@H](O)CC(=O)O3)[C@H]21 [Simvastatin, reference compound]
Percentage change (Aβ-42 levels in brain; Simvastatin 250 mg/kg oral, group terminated on day 12): 8%

C=CCc1ccc(OC(=O)CC(OC(=O)c2cccnc2)C(=O)OC)c(OC)c1 (centres unmarked) [Compound 9, 2-(Pyridine-3-carbonyloxy)-succinic acid 4-(4-allyl-2-methoxy-phenyl) ester 1-methyl ester]
IC50 (Aβ42 secretion; [1]): 18.7 µM
Aβ-42 levels Mean ± SE (Aβ-42 levels in brain; 10 mg/kg oral, 2 weeks): 44.14 ± 7.88 ng/mg protein
Aβ-42 levels Mean ± SE (Aβ-42 levels in brain; 25 mg/kg oral, 2 weeks): 31.03 ± 3.98 ng/mg protein
Aβ-42 levels Mean ± SE (Aβ-42 levels in brain; 50 mg/kg oral, 2 weeks): 21.85 ± 1.75 ng/mg protein
Percentage change (Aβ-42 levels in brain; 10 mg/kg oral, 2 weeks): −22%
Percentage change (Aβ-42 levels in brain; 25 mg/kg oral, 2 weeks): −45%
Percentage change (Aβ-42 levels in brain; 50 mg/kg oral, 2 weeks): −61%
Path length (Wistar rats; [2]): 1423.43 cm
Swim speed (Wistar rats; [2]): 26.53 cm/s
Target latency (Wistar rats; [2]): 53859.40 ms
Path length (Wistar rats; [3]): 1329.08 cm
Swim speed (Wistar rats; [3]): 25.77 cm/s
Target latency (Wistar rats; [3]): 50283.22^ ms
Path length (Wistar rats; [4]): 1480.57 cm
Swim speed (Wistar rats; [4]): 26.93 cm/s
Target latency (Wistar rats; [4]): 54445.94 ms
Path length (Wistar rats; [5]): 1619.28 cm
Swim speed (Wistar rats; [5]): 30.67 cm/s
Target latency (Wistar rats; [5]): 51421.60 ms
Path length (Wistar rats; [6]): 1503.53 cm
Swim speed (Wistar rats; [6]): 29.97 cm/s
Target latency (Wistar rats; [6]): 48347.97^ ms
Path length (Wistar rats; [7]): 1755.96 cm
Swim speed (Wistar rats; [7]): 31.99 cm/s
Target latency (Wistar rats; [7]): 53382.85 ms
Path length (Wistar rats; [8]): 1414.4745^ cm
Swim speed (Wistar rats; [8]): 31.07 cm/s
Target latency (Wistar rats; [8]): 43128.23 ms
Path length (Wistar rats; [9]): 1038.10** cm
Swim speed (Wistar rats; [9]): 28.45** cm/s
Target latency (Wistar rats; [9]): 32780.27** ms
Path length (Wistar rats; [10]): 1509.45 cm
Swim speed (Wistar rats; [10]): 30.89^ cm/s
Target latency (Wistar rats; [10]): 45171.54 ms
Path length (Wistar rats; [11]): 1233.92* cm
Swim speed (Wistar rats; [11]): 29.51* cm/s
Target latency (Wistar rats; [11]): 40643.54 ms
Path length (Wistar rats; [12]): 946.10*** cm
Swim speed (Wistar rats; [12]): 28.57*** cm/s
Target latency (Wistar rats; [12]): 31915.04*** ms
Path length (Wistar rats; [13]): 1254.41^ cm
Swim speed (Wistar rats; [13]): 29.36** cm/s
Target latency (Wistar rats; [13]): 40663.06 ms
reduction of brain levels of soluble aβ-42 (soluble brain aβ-42): 22%
reduction of brain levels of soluble aβ-40 (soluble brain aβ-40): 23%
